Results published in the NIST ThermoML archive (doi:10.1021/je800110r).
Where “and” joins values, the source holds several entries; their conditions need not be identical. Identical values can stand only once. Numbers after ± are expanded uncertainties.

Settings: Liquid, Vibrating tube method

CCCCCCCCCC [decane]
Settings | mass density
283.14 K, 21786 kPa | 752.1 ± 2 kg/m3
283.14 K, 21835 kPa | 752.2 ± 2 kg/m3
283.14 K, 21866 kPa | 752.3 ± 2 kg/m3
283.14 K, 22948 kPa | 752.7 ± 2 kg/m3
283.14 K, 22974 kPa | 752.9 ± 2 kg/m3
283.14 K, 23083 kPa | 752.9 ± 2 kg/m3
283.14 K, 24091 kPa | 753.6 ± 2 kg/m3
283.14 K, 24111 kPa | 753.6 ± 2 kg/m3
283.14 K, 24206 kPa | 753.6 ± 2 kg/m3
283.14 K, 25452 kPa | 754.4 ± 2 kg/m3
283.14 K, 27407 kPa | 755.5 ± 2.1 kg/m3
283.14 K, 27430 kPa | 755.5 ± 2.1 kg/m3
283.14 K, 27471 kPa | 755.7 ± 2.1 kg/m3
283.14 K, 27497 kPa | 755.6 ± 2.1 kg/m3
283.14 K, 27531 kPa | 755.7 ± 2.1 kg/m3
283.14 K, 27558 kPa | 755.6 ± 2.1 kg/m3
283.14 K, 27588 kPa | 755.8 ± 2.1 kg/m3
283.14 K, 29091 kPa | 756.5 ± 2.1 kg/m3
283.14 K, 29172 kPa | 756.6 ± 2.1 kg/m3
283.14 K, 29227 kPa | 756.6 ± 2.1 kg/m3
283.14 K, 29531 kPa | 756.9 ± 2.1 kg/m3
283.14 K, 29628 kPa | 756.9 ± 2.1 kg/m3
283.14 K, 29720 kPa | 756.8 ± 2.1 kg/m3
283.14 K, 29749 kPa | 756.9 ± 2.1 kg/m3
283.14 K, 29785 kPa | 756.9 ± 2.1 kg/m3
283.14 K, 29818 kPa | 757 ± 2.1 kg/m3
283.14 K, 29843 kPa | 756.9 ± 2.1 kg/m3
283.14 K, 29867 kPa | 757.1 ± 2.1 kg/m3
283.14 K, 29895 kPa | 757 ± 2.1 kg/m3
283.14 K, 29928 kPa | 757.2 ± 2.1 kg/m3
283.14 K, 29961 kPa | 757 ± 2.1 kg/m3
283.14 K, 29990 kPa | 757.1 ± 2.1 kg/m3
283.14 K, 30019 kPa | 757.1 ± 2.1 kg/m3
283.14 K, 30044 kPa | 757.1 ± 2.1 kg/m3
283.14 K, 30081 kPa | 757.1 ± 2.1 kg/m3
283.14 K, 30115 kPa | 757.2 ± 2.1 kg/m3
283.14 K, 30145 kPa | 757.1 ± 2.1 kg/m3
283.14 K, 30807 kPa | 757.7 ± 2.1 kg/m3
283.14 K, 30934 kPa | 757.6 ± 2.1 kg/m3
283.14 K, 31526 kPa | 758 ± 2.1 kg/m3
283.14 K, 31540 kPa | 758 ± 2.1 kg/m3
283.14 K, 31581 kPa | 758.1 ± 2.1 kg/m3
283.14 K, 31898 kPa | 758.1 ± 2.1 kg/m3
283.14 K, 31921 kPa | 758.2 ± 2.1 kg/m3
283.14 K, 31938 kPa | 758.2 ± 2.1 kg/m3
283.14 K, 31958 kPa | 758.3 ± 2.1 kg/m3
283.14 K, 31979 kPa | 758.2 ± 2.1 kg/m3
283.14 K, 32000 kPa | 758.3 ± 2.1 kg/m3
283.14 K, 32020 kPa | 758.2 ± 2.1 kg/m3
283.14 K, 32038 kPa | 758.2 ± 2.1 kg/m3
283.14 K, 32070 kPa | 758.2 ± 2.1 kg/m3
283.14 K, 32106 kPa | 758.4 ± 2.1 kg/m3
283.14 K, 32127 kPa | 758.3 ± 2.1 kg/m3
283.14 K, 32164 kPa | 758.3 ± 2.1 kg/m3
283.14 K, 32190 kPa | 758.4 ± 2.1 kg/m3
283.14 K, 32578 kPa | 758.6 ± 2.1 kg/m3
283.14 K, 33321 kPa | 759.1 ± 2.1 kg/m3
283.14 K, 33347 kPa | 759 ± 2.1 kg/m3
283.14 K, 33367 kPa | 759 ± 2.1 kg/m3
283.14 K, 33396 kPa | 759 ± 2.1 kg/m3
283.14 K, 33425 kPa | 758.9 ± 2.1 kg/m3
283.14 K, 33445 kPa | 759 ± 2.1 kg/m3
283.14 K, 33471 kPa | 759.1 ± 2.1 kg/m3
283.14 K, 33494 kPa | 759.1 ± 2.1 kg/m3
283.14 K, 33514 kPa | 759 ± 2.1 kg/m3
283.14 K, 34282 kPa | 759.5 ± 2.1 kg/m3
283.14 K, 34384 kPa | 759.6 ± 2.1 kg/m3
283.14 K, 34405 kPa | 759.6 ± 2.1 kg/m3
283.14 K, 34424 kPa | 759.7 ± 2.1 kg/m3
283.14 K, 34465 kPa | 759.7 ± 2.1 kg/m3
283.15 K, 312 kPa | 737.7 ± 2 kg/m3 and 737.6 ± 2 kg/m3
283.15 K, 314 kPa | 737.5 ± 2 kg/m3
283.15 K, 361 kPa | 737.6 ± 2 kg/m3
283.15 K, 417 kPa | 737.6 ± 2 kg/m3
283.15 K, 446 kPa | 737.8 ± 2 kg/m3
283.15 K, 603 kPa | 737.9 ± 2 kg/m3
283.15 K, 1468 kPa | 738.4 ± 2 kg/m3
283.15 K, 1599 kPa | 738.6 ± 2 kg/m3
283.15 K, 1655 kPa | 738.6 ± 2 kg/m3
283.15 K, 1727 kPa | 738.5 ± 2 kg/m3
283.15 K, 1798 kPa | 738.8 ± 2 kg/m3
283.15 K, 1897 kPa | 738.7 ± 2 kg/m3
283.15 K, 1959 kPa | 738.9 ± 2 kg/m3
283.15 K, 2028 kPa | 738.8 ± 2 kg/m3
283.15 K, 2118 kPa | 738.9 ± 2 kg/m3
283.15 K, 2175 kPa | 739 ± 2 kg/m3
283.15 K, 2229 kPa | 739 ± 2 kg/m3
283.15 K, 2291 kPa | 739.1 ± 2 kg/m3
283.15 K, 2327 kPa | 739.1 ± 2 kg/m3
283.15 K, 2370 kPa | 739 ± 2 kg/m3
283.15 K, 2425 kPa | 739.1 ± 2 kg/m3
283.15 K, 2520 kPa | 739.2 ± 2 kg/m3
283.15 K, 2614 kPa | 739.3 ± 2 kg/m3
283.15 K, 2634 kPa | 739.3 ± 2 kg/m3
283.15 K, 2647 kPa | 739.4 ± 2 kg/m3
283.15 K, 2708 kPa | 739.4 ± 2 kg/m3
283.15 K, 2730 kPa | 739.4 ± 2 kg/m3
283.15 K, 2749 kPa | 739.3 ± 2 kg/m3
283.15 K, 2767 kPa | 739.4 ± 2 kg/m3
283.15 K, 2789 kPa | 739.4 ± 2 kg/m3
283.15 K, 2807 kPa | 739.5 ± 2 kg/m3
283.15 K, 2822 kPa | 739.5 ± 2 kg/m3
283.15 K, 2835 kPa | 739.4 ± 2 kg/m3
283.15 K, 2864 kPa | 739.6 ± 2 kg/m3
283.15 K, 3136 kPa | 739.7 ± 2 kg/m3
283.15 K, 3226 kPa | 739.7 ± 2 kg/m3
283.15 K, 3273 kPa | 739.9 ± 2 kg/m3
283.15 K, 3287 kPa | 739.8 ± 2 kg/m3
283.15 K, 3296 kPa | 739.8 ± 2 kg/m3
283.15 K, 3307 kPa | 739.9 ± 2 kg/m3
283.15 K, 3341 kPa | 739.9 ± 2 kg/m3
283.15 K, 3352 kPa | 739.8 ± 2 kg/m3
283.15 K, 3361 kPa | 739.8 ± 2 kg/m3
283.15 K, 3373 kPa | 739.9 ± 2 kg/m3
283.15 K, 3380 kPa | 740 ± 2 kg/m3
283.15 K, 3390 kPa | 739.9 ± 2 kg/m3
283.15 K, 3400 kPa | 739.8 ± 2 kg/m3
283.15 K, 3408 kPa | 740 ± 2 kg/m3
283.15 K, 3417 kPa | 739.9 ± 2 kg/m3
283.15 K, 3426 kPa | 740 ± 2 kg/m3
283.15 K, 3434 kPa | 739.9 ± 2 kg/m3
283.15 K, 3443 kPa | 739.8 ± 2 kg/m3
283.15 K, 3452 kPa | 740 ± 2 kg/m3
283.15 K, 3461 kPa | 739.9 ± 2 kg/m3
283.15 K, 3471 kPa | 740 ± 2 kg/m3
283.15 K, 3485 kPa | 740 ± 2 kg/m3
283.15 K, 3496 kPa | 739.9 ± 2 kg/m3
283.15 K, 3507 kPa | 740.1 ± 2 kg/m3
283.15 K, 3517 kPa | 740 ± 2 kg/m3
283.15 K, 3528 kPa | 739.9 ± 2 kg/m3
283.15 K, 3539 kPa | 740 ± 2 kg/m3
283.15 K, 3552 kPa | 740 ± 2 kg/m3
283.15 K, 3563 kPa | 740.1 ± 2 kg/m3
283.15 K, 3575 kPa | 740 ± 2 kg/m3
283.15 K, 3586 kPa | 740.2 ± 2 kg/m3
283.15 K, 3601 kPa | 740 ± 2 kg/m3
283.15 K, 3612 kPa | 740.1 ± 2 kg/m3
